# Laboratory results taken from patent US20060030603A1, “Novel aryl urea analogs and use thereof as antibacterial agents” (priority 2004, published 2006).
# Like-named read-outs stand apart in the source and are kept apart here.
# Columns and labels:
# [1] = MIT HUH-7 CC50 48h cytotoxicity; type: cell-based; conditions: human, HUH-7 cells; HUH-7, 48h
# [2] = system: E. faecium ATCC 6569; assay: MIC assay, E. faecium; type: cell-based; conditions: Enterococcus faecium, ATCC6569; read-out: MIC E. faecium ATCC 6569
# Method: (§1) In vitro structure/activity relationship (“SAR”) tests were performed according to the following procedure: MIC assays were carried out in a 150 μL volume in duplicate in 96-well clear flat-bottom plates. The bacterial suspension from an overnight culture growth in the appropriate medium was added to a solution of test compound in 0.5% DMSO in water. Final bacterial inoculum was approximate 10^3-10^4 CFU/well. The percentage growth of the bacteria in the test wells relative to that observed for a control well containing no compound was determined by measuring absorbance at 595 nm (A595) after 20-24 h at 37° C. […] The bacterial strains used for the assays include S. aureus ATCC 13709, S. pyogenes ATCC 49399, E. faecalis ATCC 29212, E. faecium ATCC 6569, E. coli ATCC 25922, K. pneumoniae ATCC 13383, P. vulgaris ATCC 8427, P. aeruginosa ATCC 25416. The results of the in vitro SAR tests are in Tables 1-3.
# [3] = system: S. aureus ATCC 13709; assay: MIC assay, S. aureus; type: cell-based; conditions: Staphylococcus aureus, ATCC13709
# Method: as §1
# [4] = system: E. coli ATCC 25922; assay: MIC assay, E. coli; type: cell-based; conditions: Escherichia coli, ATCC25922; read-out: MIC E. coli ATCC 25922
# Method: as §1
# [5] = system: S. pyogenes ATCC 49399; assay: MIC assay, S. pyogenes; type: cell-based; conditions: Streptococcus pyogenes, ATCC49399; read-out: MIC S. pyogenes ATCC 49399
# Method: as §1
# [6] = system: K. pneumoniae ATCC 13383; assay: MIC assay, K. pneumoniae; type: cell-based; conditions: Klebsiella pneumoniae, ATCC13383; read-out: MIC K. pneumoniae ATCC 13383
# Method: as §1
# [7] = system: E. faecalis ATCC 29212; assay: MIC assay, E. faecalis; type: cell-based; conditions: Enterococcus faecalis, ATCC29212; read-out: MIC E. faecalis ATCC 29212
# Method: as §1
# [8] = system: P. vulgaris ATCC 8427; assay: MIC assay, P. vulgaris; type: cell-based; conditions: Proteus vulgaris, ATCC8427; read-out: MIC P. vulgaris ATCC 8427
# Method: as §1
# [9] = log P; type: physicochemical
# [10] = system: P. aeruginosa ATCC 25416; assay: MIC assay, P. aeruginosa; type: cell-based; conditions: Pseudomonas aeruginosa, ATCC25416; read-out: MIC P. aeruginosa ATCC 25416
# Method: as §1
# [11] = Acute Toxicity Study (maximum tolerated dose); type: in vivo; conditions: observed seven days; for toxic dose via the IP route: intraperitoneal, 150 down to 19 mg/kg tested; for survival in the subQ group: subcutaneous, 150 down to 19 mg/kg, compound appeared to precipitate at injection site
# Method: Acute Toxicity Study: The maximum tolerated dose for either compound 12e or 14b was determined by administering the compound from 150 mg/kg down to 19 mg/kg given either intraperitoneally (IP) or subcutaneously (subQ). […] On autopsy some of the compound appeared to precipitate at the injection site thereby reducing the effective dose. Via the IP route compound 12e was toxic down to 37 mg/kg and compound 14b was only toxic at 150 mg/kg.
# [12] = system: S. aureus (ATCC 13709); assay: Mouse Protection Assay (lethal murine model of bacterial infection); type: in vivo, ICR-CD-1 female mice; conditions: 14b HCl salt
# Method: The in vivo tests were preformed according to the following procedure:
# Mouse Protection Assay: 10 mice/dose group (ICR-CD-1 female mice 18-20 grams, Charles River) were infected with a lethal dose (10^6 CFU/mouse) of S. aureus (ATCC 13709) suspended in 7.5% hog Gastric Mucin IP. The infected animals were treated at 1 h and 3 h post infection with either compound 12e (lactate salt) from 37 mg/kg down to 2.3 mg/kg or compound 14b (HCl salt) from 75 mg/kg down to 2.3 mg/kg (0.1 mL/mouse). The positive control drug was Vancomycin (Eli Lilly) 1 mg/kg.
# [13] = Table 2, benzylamino group modified analogs, read-out: MIC S. aureus
# [14] = Table 4, read-out: MIC S. aureus ATCC 13709
# [15] = 2.3 × 2 mg/Kg, 1 h and 3 h post infection, one week, 12e lactate salt
# [16] = 4.7 × 2 mg/Kg, 1 h and 3 h post infection, one week, 12e lactate salt
# [17] = 9.4 × 2 mg/Kg, 1 h and 3 h post infection, one week, 12e lactate salt
# [18] = 18.8 × 2 mg/Kg, 1 h and 3 h post infection, one week, 12e lactate salt
# [19] = 37.5 × 2 mg/Kg, 1 h and 3 h post infection, one week, 12e lactate salt
Compound,CC50 at 48 h [1] [µM],MIC [2] [µM],"MIC [3, 13] [µM]","MIC [3, 14] [µM]",MIC [4] [µM],MIC [5] [µM],MIC [6] [µM],MIC [7] [µM],MIC [8] [µM],logP [9],MIC [10] [µM],toxic dose via the IP route [11] [mg/kg],survival in the subQ group [11],"Mice Alive/Total [12, 15]","Mice Alive/Total [12, 16]","Mice Alive/Total [12, 17]","Mice Alive/Total [12, 18]","Mice Alive/Total [12, 19]","Mice Alive/Total ([12]; 75 × 2 mg/Kg, treated 1 h and 3 h post infection, observed one week)"
"O=C(NCCCNCc1ccc(Oc2ccccc2)cc1)Nc1ccc(C(F)(F)F)cc1 [12h, 1-[3-(4-Phenoxy-benzylamino)-propyl]-3-(4-trifluoromethyl-phenyl)-urea]",12.5 to 25,> 100,3 to 6,3 to 6,6 to 12,3 to 6,6 to 12,3 to 6,12 to 25,4.77,> 100,,,,,,,,
"CN(CCCNC(=O)Nc1ccc(C(F)(F)F)cc1)CCCOc1ccc(Br)cc1Br [14b, 1-(3-{[3-(2,4-Dibromo-phenoxy)-propyl]-methyl-amino}-propyl)-3-(4-trifluoromethyl-phenyl)-urea]",> 100,> 100,3 to 6,3 to 6,12 to 25,3 to 6,3 to 6,3 to 6,12 to 25,5.3,> 100,150,all animals survived at all doses tested,3/10,4/10,6/10,6/10,7/10,4/10
"O=C(NCCCNCc1ccc(-c2ccccc2)cc1)Nc1ccc(C(F)(F)F)cc1 [12e, 1-{3-[(Biphenyl-4-ylmethyl)-amino]-propyl}-3-(4-trifluoromethyl-phenyl)-urea]",25 to 50,> 100,3 to 6,3 to 6,6 to 12,3 to 6,6 to 12,> 100,12 to 25,4.91,> 100,≥ 37,all animals survived at all doses tested,0/10,2/10,4/10,3/10,3/10,
"CCOc1c(Br)cc(Br)cc1CNCCCNC(=O)Nc1ccc(C(F)(F)F)cc1 [12s, 1-[3-(3,5-Dibromo-2-ethoxy-benzylamino)-propyl]-3-(4-trifluoromethyl-phenyl)-urea]",50 to 100,6 to 12,3 to 6,3 to 6,12 to 25,3 to 6,3 to 6,6 to 12,12 to 25,5.1,> 100,,,,,,,,
